# Columns and labels:
# DBA/2 mice = assay: anticonvulsant protection (DBA2 mouse model of anticonvulsant efficacy, sound-induced seizures); format: in vivo; parameters: Anticonvulsant % Protect 2 hr: concentration or dose not given beside the values; conditions: for Anticonvulsant % Protect 2 hr: Table 1; for Anticonvulsant % Protect* 2h / Anticonvulsant % Protect* 1h: dosed at 30 mg/kg PO
# [1] = anxiolytic activity relative to pregabalin (model not given); format: in vivo; conditions: dosed at 30 mg/kg PO; percent of pregabalin activity
compound,measurement,setting,value
CC[C@@H](C)[C@H](CN)CC(=O)O,Anticonvulsant % Protect 2 hr,DBA/2 mice,0%
CC(C)[C@@H](C)C(CN)CC(=O)O (some centres unmarked),Anticonvulsant % Protect 2 hr,DBA/2 mice,100%
CCC(CC)C(CN)CC(=O)O (centres unmarked),Anticonvulsant % Protect 2 hr,DBA/2 mice,20%
CCC(C)CC(CN)CC(=O)O (centres unmarked),Anticonvulsant % Protect 2 hr,DBA/2 mice,100%
"CCCC(C)CC(CN)CC(=O)O (centres unmarked) [3-Aminomethyl-5-methyloctanoic acid, 3-Aminomethyl-5-methyl-octanoic acid]",Anticonvulsant % Protect* 2h,DBA/2 mice,100%
"CC(C)[C@H](C)[C@H](CN)CC(=O)O [(3R,4S)-3-Aminomethyl-4,5-dimethyl-hexanoic acid]",Anxiolytic Activity* % Preg. Act.,[1],58%
"CC(C)[C@@H](C)[C@@H](CN)CC(=O)O [(3S,4R)3-Aminomethyl-4,5-dimethyl-hexanoic acid]",Anxiolytic Activity* % Preg. Act.,[1],12%
"CCC[C@@H](C)C[C@H](CN)CC(=O)O.Cl [(3S,5R)-3-Aminomethyl-5-methyl-octanoic acid hydrochloride]",Anticonvulsant % Protect* 1h,DBA/2 mice,100%
same,Anticonvulsant % Protect* 2h,DBA/2 mice,100%
"CCCCC[C@H](C)C[C@H](CN)CC(=O)O [(3S,5S)-3-Aminomethyl-5-methyl-decanoic acid]",Anticonvulsant % Protect* 1h,DBA/2 mice,0%
CC(C)CC(CN)CC(=O)O (centres unmarked) [reference compound],Anticonvulsant % Protect 2 hr,DBA/2 mice,100%
